Measurements published in paper PMC9495423, “Identification of the Natural Steroid Sapogenin Diosgenin as a Direct Dual-Specific RORα/γ Inverse Agonist” (Biomedicines, 2022).

Key:
[1] = biological target: T1, RORα (Homo sapiens, UniProt P35398); test: RORα-Gal4 luciferase reporter assay in HEK293 cells (inverse agonism); type: cell-based
T1 construct: gene RORA; RORα-Gal4
T1 sequence (P35398 1-523): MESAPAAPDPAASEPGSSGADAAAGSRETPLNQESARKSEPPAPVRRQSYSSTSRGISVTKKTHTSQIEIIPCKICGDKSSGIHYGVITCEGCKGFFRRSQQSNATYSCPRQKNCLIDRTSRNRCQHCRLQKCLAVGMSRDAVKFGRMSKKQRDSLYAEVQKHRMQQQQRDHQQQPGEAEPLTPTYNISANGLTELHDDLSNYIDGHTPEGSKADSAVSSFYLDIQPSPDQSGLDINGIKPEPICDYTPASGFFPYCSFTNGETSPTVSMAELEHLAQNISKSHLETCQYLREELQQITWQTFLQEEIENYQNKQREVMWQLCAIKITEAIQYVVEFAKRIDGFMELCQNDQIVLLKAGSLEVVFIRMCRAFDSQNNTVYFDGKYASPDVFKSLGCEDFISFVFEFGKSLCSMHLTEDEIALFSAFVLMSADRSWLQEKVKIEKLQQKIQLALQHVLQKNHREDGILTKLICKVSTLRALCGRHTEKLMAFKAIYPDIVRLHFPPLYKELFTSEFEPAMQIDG

[2] = biological target: T2, RORγ (Homo sapiens, UniProt P51449); test: RORγ-Gal4 luciferase reporter assay in HEK293 cells (inverse agonism); full-length RORγ-RORE assay IC50 […]; type: cell-based
T2 construct: gene RORC; also full-length RORγ transcript variant 1
T2 sequence (P51449 265-507 limits assumed): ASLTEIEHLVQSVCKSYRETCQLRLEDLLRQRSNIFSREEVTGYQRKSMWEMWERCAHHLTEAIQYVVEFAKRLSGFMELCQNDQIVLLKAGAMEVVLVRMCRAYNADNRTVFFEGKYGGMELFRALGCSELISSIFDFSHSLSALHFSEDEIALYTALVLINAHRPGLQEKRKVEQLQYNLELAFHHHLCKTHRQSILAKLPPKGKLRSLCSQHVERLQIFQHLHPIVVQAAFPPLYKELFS

C[C@@H]1CC[C@@]2(OC1)O[C@H]1C[C@H]3[C@@H]4CC=C5C[C@@H](O)CC[C@]5(C)[C@H]4CC[C@]3(C)[C@H]1[C@@H]2C [diosgenin]
IC50 [1]: 2170 nM | IC50 [2]: 1730 nM
